Source: patent US20240199571A1, “THIOPHENE COMPOUND AND APPLICATION THEREOF” (MEDSHINE DISCOVERY INC., priority 2021, published 2024)
Structures can show the parent of a compound that is named as a salt.

Experiments:
NCI-H1417 cells = assay: Experiment 2: inhibition of NCI-H1417 cell proliferation (CellTiter-Glo, 10 days); type: cell-based; conditions: Homo sapiens, 240 h, 10 days incubation
Method: Experiment 2: Evaluation of Inhibitory Activity on NCI-H1417 Cell Proliferation
Experimental purpose: To test the inhibitory activity of test compounds on NCI-H1417 cell proliferation.
Experimental materials: RPMI 1640 medium, fetal bovine serum, Promega CellTiter-Glo reagent. The NCI-H1417 cell line was purchased from ATCC. Envision multilabel plate reader (PerkinElmer).
Experimental method: The compounds were dissolved to 10 mM and 5-fold diluted with DMSO in the compound plates, starting with a concentration of 2 mM. 3-fold serial dilution was performed with Bravo to 10 concentrations. Then 250 nL of the compound solution was transferred to the upper and lower double duplicate wells of a blank 384 cell plate with Echo. To each well containing the transferred 250 nL of DMSO/compound was added a cell suspension of 1000 cells/50 μL per well, and the compound was diluted 200-fold, i.e., resulting in an initial working concentration of 10 μM. The cell plate was incubated in a carbon dioxide incubator for 10 days. To the cell plate was added 25 μL of Promega CellTiter-Glo reagent per well and the mixture was shaken for 10 minutes at room temperature to stabilize the luminescence signal. Readings were performed on a PerkinElmer Envision multilabel plate reader.
Data analysis: Raw data were converted into inhibition rate using the formula: (Max−Ratio)/(Max−Min)*100%. The IC50 values could then be derived from four-parameter curve fitting. (derived from 205 mode in XLFIT5, iDBS)
The compounds were tested for inhibitory activity of compounds on NCI-H1417 cell proliferation, and the results are shown in Table 3.

human LSD1 = human LSD1 (Homo sapiens (Human), UniProt O60341); assay: Experiment 1B: in vitro LSD1 enzyme activity, enzyme-coupled fluorescence (HRP/Amplex Red), H3(1-21)K4me2 peptide 10 μM (Reaction Biology); type: biochemical; conditions: histone H3(1-21)K4me2 peptide 10 μM
Method: Experiment 1B: Evaluation of Enzyme Activity
Testing unit: Reaction Biology Corp., USA.
The purpose of the assay was to test the in vitro inhibitory activity of the compounds against LSD1. The enzyme used in the assay was human LSD1, and the standard substrate was histone H3(1-21)K4me2 peptide (10 μM). The activity of the compounds was determined by the enzyme-coupling fluorescent method by the combined detection of H2O2 generated after the reaction of LSD1 by horseradish peroxidase (HRP) and the fluorescent reagent Amplex Red. Starting from 10 μM, the compounds were 3-fold diluted to detect the IC50 values of the compounds at 10 concentrations. The enzyme and substrate were incubated for 30 minutes before the compound was added to the substrate to start the reaction. Fluorescence detector: EnVision, excitation wavelength: Ex/Em=535/590 nM.

[1] = biological target: hERG potassium ion channels (Homo sapiens (Human), UniProt Q12809); assay: Experiment 4: hERG potassium ion channel inhibition, automated patch clamp (Qpatch), CHO-hERG cells; type: cell-based; conditions: highest test concentration 40 μM
Method: Experiment 4: hERG Potassium Ion Channel Inhibition Assay
Experimental purpose: To test the effects of the test examples on hERG potassium ion channels using an automated patch clamp method.
4.1.1 CHO-hERG cells were cultured in a 175 cm^2 culture flask. When the cell density grew from 60% to 80%, the culture medium was removed. The cells were washed once with 7 mL of PBS (Phosphate Buffered Saline), and then 3 mL of Detachin cell dissociation reagent was added thereto for digestion.
4.1.2 After the digestion was completed, 7 mL of culture medium was added thereto for neutralization, then the mixture was centrifuged, the supernatant was aspirated, and then 5 mL of culture medium was added thereto for resuspension to ensure a cell density of 2×10^6/mL to 5×10^6/ML.
The single-cell high-resistance sealing and whole-cell modeling formation processes were all automatically completed by the Qpatch instrument of the Shanghai Institute of Materia Medica, Chinese Academy of Sciences. After obtaining the whole-cell recording modeling, the cells were clamped at −80 mV, and before a 5-second +40 mV depolarizing stimulus was given, a 50-millisecond −50 mV prepulse was first given, then the voltage was repolarized to −50 mV and holden for 5 seconds, and finally returned to −80 mV. This voltage stimulus was applied every 15 seconds, recorded for 2 minutes, and then the extracellular fluid was recorded for 5 minutes, and then the administration process was initiated, with compound concentrations starting at the lowest test concentration. The voltage stimulus was given for 2.5 minutes for each test concentration, and after all concentrations had been continuously given, 3 μM the positive control compound, Cisapride, was given. At least 3 cells were tested per concentration (n≥3).
4.4.1 The compound stock solution was diluted with DMSO, and 20 μL of DMSO solution was added with 10 μL of the compound stock solution, and serially diluted 3-fold to 6 DMSO concentrations.
4.4.2 4 μL of 6 DMSO concentrations of compounds were taken respectively and added to 396 μL of extracellular fluid, and the mixture was diluted 100-fold to 6 intermediate concentrations, then 80 μL of 6 intermediate concentrations of compounds was taken and added to 320 μL of extracellular fluid, and the mixture was diluted 5-fold to the final test concentration.
4.4.3 The highest test concentration was 40 μM, and the concentrations were respectively 40, 13.3, 4.4, 1.48, 0.494, and 0.165 μM for a total of six concentrations.
4.4.5 The preparation of the compound was completed by the Bravo instrument throughout the dilution process.
Experimental data were analyzed by GraphPad Prism 5.0 software.

[2] = Experiment 3: pharmacokinetic evaluation in CD-1 mice (IV and oral); type: in vivo; conditions: mouse, plasma, male CD-1 mice
Method: Experiment 3: Pharmacokinetic Evaluation of Compounds
Experimental purpose: To test the pharmacokinetics of compounds in CD-1 mice in vivo
CD-1 mice (male/female, 7 to 9 weeks old, Shanghai SLAC)
The pharmacokinetic characteristics of the compounds in rodents after intravenous injection and oral administration were tested according to the standard protocol. In the experiment, the candidate compound was formulated into clear solutions, and a single intravenous injection and oral administration were given to mice. The vehicle for intravenous injection and oral administration was a mixed vehicle composed of 10% dimethyl sulfoxide and 90% hydroxypropyl β-cyclodextrin with a content of 10%. In this project, four male/female CD-1 mice were used. Two mice were injected intravenously at a dose of 1 mg/kg, and plasma samples were collected at 0.083, 0.25, 0.5, 1, 2, 4, 8, and 24 hours after administration; the other two were administered orally by gavage at a dose of 2 mg/kg, and plasma samples were collected at 0.25, 0.5, 1, 2, 4, 8, and 24 hours after administration. The samples were centrifuged at 3200 g for 10 minutes at 4° C., and plasma samples were obtained by separating the supernatant. A methanol solution containing internal standard with 20 times the volume of the sample was added thereto to precipitate the protein, and the mixture was centrifuged at 12000 g for 15 minutes at 4° C. 50 μL of the supernatant was taken and transferred to a 96-well plate and centrifuged again. The supernatant was taken for sampling. The plasma concentration was quantitatively analyzed using LC-MS/MS analysis method, and pharmacokinetic parameters, such as peak concentration (Cmax), clearance rate (CL), half-life (T1/2), volume of distribution at steady state (Vdss), area under drug-time curve (AUC0-last), bioavailability (F).

hERG potassium ion channels, sequence (Q12809 whole entry): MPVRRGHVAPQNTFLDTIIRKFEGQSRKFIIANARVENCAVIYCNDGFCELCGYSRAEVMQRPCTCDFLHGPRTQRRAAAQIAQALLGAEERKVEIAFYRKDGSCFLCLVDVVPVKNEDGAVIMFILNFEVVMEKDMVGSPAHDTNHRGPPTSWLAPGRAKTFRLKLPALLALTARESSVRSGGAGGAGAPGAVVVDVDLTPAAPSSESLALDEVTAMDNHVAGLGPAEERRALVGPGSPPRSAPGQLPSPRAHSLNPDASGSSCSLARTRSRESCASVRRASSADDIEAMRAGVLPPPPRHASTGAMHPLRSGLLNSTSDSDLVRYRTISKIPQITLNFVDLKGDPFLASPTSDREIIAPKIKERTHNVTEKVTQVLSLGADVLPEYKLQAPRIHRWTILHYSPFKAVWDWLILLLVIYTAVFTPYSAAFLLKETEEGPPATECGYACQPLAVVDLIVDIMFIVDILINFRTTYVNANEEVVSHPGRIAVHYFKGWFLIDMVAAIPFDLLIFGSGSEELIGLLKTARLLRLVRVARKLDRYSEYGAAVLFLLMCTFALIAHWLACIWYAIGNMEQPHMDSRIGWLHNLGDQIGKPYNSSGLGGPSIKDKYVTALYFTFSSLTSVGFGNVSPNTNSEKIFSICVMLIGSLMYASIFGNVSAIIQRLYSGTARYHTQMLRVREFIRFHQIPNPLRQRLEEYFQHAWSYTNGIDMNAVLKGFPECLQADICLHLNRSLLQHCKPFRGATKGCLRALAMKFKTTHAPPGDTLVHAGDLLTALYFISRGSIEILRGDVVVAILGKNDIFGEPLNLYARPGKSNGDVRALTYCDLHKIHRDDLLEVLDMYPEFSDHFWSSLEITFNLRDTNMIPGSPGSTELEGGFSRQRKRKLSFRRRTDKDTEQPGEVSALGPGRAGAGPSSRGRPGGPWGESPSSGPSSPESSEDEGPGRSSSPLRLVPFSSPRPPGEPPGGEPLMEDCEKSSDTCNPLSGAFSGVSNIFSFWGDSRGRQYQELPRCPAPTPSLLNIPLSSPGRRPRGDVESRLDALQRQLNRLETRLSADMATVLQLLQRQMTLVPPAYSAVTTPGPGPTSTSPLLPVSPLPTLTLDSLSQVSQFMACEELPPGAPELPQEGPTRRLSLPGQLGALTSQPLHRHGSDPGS

SMILES	IC50 (NCI-H1417 cells) [nM]	IC50 (human LSD1) [nM]	clearance ([2]; IV 1 mg/kg, read-out: Clearance rate CL) [mL/min/kg]	half-life ([2]; IV 1 mg/kg, read-out: Half life T1/2 (IV, h) (converted)) [h]	Vd ([2]; IV 1 mg/kg, read-out: Volume of distribution at steady state Vdss) [L/kg]	bioavailability ([2]; PO 2 mg/kg vs IV 1 mg/kg, read-out: Bioavailability F (%)) [%]	AUC(0-t) ([2]; PO 2 mg/kg, read-out: Area under drug-time curve AUC0-last PO) [µM·h]	Cmax ([2]; single dose, oral 2 mg/kg, read-out: Peak concentration Cmax) [nM]	IC50 [1] [µM]
CC(C)(O)CN1Cc2cc(-c3sc(C(=O)N4CCC[C@@H](N)C4)cc3-c3ccc(C#N)c(F)c3)ccc2C1=O [Compound 59]	13.2	43.1	–	–	–	–	–	–	> 40
CC(C)(O)Cn1nnc2cc(-c3sc(C(=O)N4C5CCC4C(N)C5)cc3-c3ccc(C#N)c(F)c3)ccc21 (stereo not drawn) [Hydrochloride of compound 16]	0.17	7.51	–	–	–	–	–	–	> 40
N#Cc1ccc(-c2cc(C(=O)N3CCC[C@@H](N)C3)sc2-c2ccc3c(c2)CNC3=O)cc1F [Hydrochloride of compound 46]	19.4	81.3	–	–	–	–	–	–	> 40
N#Cc1ccc(-c2cc(C(=O)N3CCC[C@@H](N)C3)sc2-c2ccc(OCC(O)CO)c(F)c2)cc1F (stereo partly drawn) [Hydrochloride of compound 54]	5.11	49.9	–	–	–	–	–	–	> 40
Cn1cc2cc(-c3sc(C(=O)N4CCC[C@@H](N)C4)cc3-c3ccc(C#N)c(F)c3)cnc2n1 [Hydrochloride of compound 56]	56.8	109	–	–	–	–	–	–	> 40
N#Cc1ccc(-c2cc(C(=O)N3CCC[C@@H](N)C3)sc2-c2ccc3c(cnn3CC(O)CO)c2)cc1F (stereo partly drawn) [Hydrochloride of compound 62]	11.2	30.1	–	–	–	–	–	–	> 40
N#Cc1ccc(-c2cc(C(=O)N3CCC[C@@H](N)C3)sc2-c2ccc3c(c2)nnn3CC2(O)CCC2)cc1F [Hydrochloride of compound 82]	1.73	3.01	–	–	–	–	–	–	14.9
CC1(O)CC(n2cc3cc(-c4sc(C(=O)N5CCC[C@@H](N)C5)cc4-c4ccc(C#N)c(F)c4)ccc3n2)C1 (stereo partly drawn) [Hydrochloride of compound 86]	10.3	16	–	–	–	–	–	–	21
CC(C)(O)Cn1nnc2cc(-c3sc(C(=O)N4CCC[C@@H](N)C4)cc3-c3ccc(C#N)c(F)c3)c(F)c(F)c21 [Hydrochloride of compound 91]	0.83	13	–	–	–	–	–	–	> 40

More lines, main results first:

IC50 (NCI-H1417 cells) [nM]	IC50 (human LSD1) [nM]	clearance ([2]; IV 1 mg/kg, read-out: Clearance rate CL) [mL/min/kg]	half-life ([2]; IV 1 mg/kg, read-out: Half life T1/2 (IV, h) (converted)) [h]	Vd ([2]; IV 1 mg/kg, read-out: Volume of distribution at steady state Vdss) [L/kg]	bioavailability ([2]; PO 2 mg/kg vs IV 1 mg/kg, read-out: Bioavailability F (%)) [%]	AUC(0-t) ([2]; PO 2 mg/kg, read-out: Area under drug-time curve AUC0-last PO) [µM·h]	Cmax ([2]; single dose, oral 2 mg/kg, read-out: Peak concentration Cmax) [nM]	SMILES	IC50 [1] [µM]
14.5	11.8	–	–	–	–	–	–	N#Cc1ccc(-c2cc(C(=O)N3CCC[C@@H](N)C3)sc2-c2ccc3nn(C4CC(O)C4)cc3c2)cc1F (stereo partly drawn) [Hydrochloride of compound 73]	> 40
39.4	87.6	–	–	–	–	–	–	N#Cc1ccc(-c2cc(C(=O)N3CCC[C@@H](N)C3)sc2-c2ccc3nn([C@H]4COCC[C@@H]4O)cc3c2)cc1F [Hydrochloride of compound 88]	21.9
1.61	15.2	–	–	–	–	–	–	N#Cc1ccc(-c2cc(C(=O)N3CCC[C@@H](N)C3)sc2-c2ccc3nn(CC4(O)CC4)cc3c2)cc1F [Hydrochloride of compound 89]	22.7
37.6	37.3	–	–	–	–	–	–	N#Cc1ccc(-c2cc(C(=O)N3CCC[C@@H](N)C3)sc2-c2ccc3c(c2)nnn3[C@H]2COCC[C@@H]2O)cc1F [Hydrochloride of compound 90]	> 40
32.8	98.4	–	–	–	–	–	–	N#Cc1ccc(-c2cc(C(=O)N3CCC[C@@H](N)C3)sc2-c2cc3cn([C@H]4COCC[C@@H]4O)nc3cc2F)cc1F [Hydrochloride of compound 94]	> 40
4.26	17.4	42	2.48	7.23	47.7	0.625	145	CC(C)(CO)n1nnc2cc(-c3sc(C(=O)N4CCC[C@@H](N)C4)cc3-c3ccc(C#N)c(F)c3)c(F)c(F)c21 [Hydrochloride of compound 99]	27
2.12	17.6	–	–	–	–	–	–	CC(C)(O)Cn1nnc2cc(-c3sc(C(=O)N4CCCNCC4)cc3-c3ccc(C#N)c(F)c3)c(F)c(F)c21 [Hydrochloride of compound 111]	21.5
